Results reported in ChEMBL document CHEMBL1151158, “New nitrogenous Germacranes from a Thai marine sponge, Axinyssa n. sp” (2004).
Calls of active or inactive are those of the source. No cut-off for these calls is given here.

What was measured:
Format in all cases: functional
Staphylococcus aureus = assay: Antimicrobial activity against Staphylococcus aureus ATCC 25923 at 500 ug/disk after 24 hrs by agar disk diffusion method
Candida albicans = assay: Antimicrobial activity against Candida albicans ATCC 10231 at 500 ug/disk after 24 hrs by agar disk diffusion method
Bacillus subtilis = assay: Antimicrobial activity against Bacillus subtilis ATCC 6633 at 500 ug/disk after 24 hrs by agar disk diffusion method

## C/C1=C/C[C@H](C(C)(C)NC(=O)NC(C)(C)[C@H]2C/C=C(/C)CC/C=C(/C)CC2)CC/C(C)=C\CC1
Staphylococcus aureus
  Activity: inactive
Candida albicans
  Activity: inactive
Bacillus subtilis
  Activity: inactive

## C/C1=C/C[C@H](C(C)(C)N)CC/C(C)=C\CC1
Staphylococcus aureus; ATCC 25923, 24 h, read-out: IZ
  zone of inhibition at 500 µg/disc: 23 mm
Candida albicans; ATCC 10231, 24 h, read-out: IZ
  zone of inhibition at 500 µg/disc: 27 mm
Bacillus subtilis; ATCC 6633, 24 h, read-out: IZ
  zone of inhibition at 500 µg/disc: 22 mm
